Reference: article PMC5466349 (Pharmacotherapy, 2014)

Assay: clinical
Settings: human, in vivo; for half-life: T ½; for half-life / Tmax: geometric mean (90% CI), post-ginseng

| Cl/Fss geometric mean ratio (90% CI), post-ginseng/pre-ginseng | T ½ geometric mean ratio (90% CI), post-ginseng/pre-ginseng | half-life | Tmax | SMILES |
| --- | --- | --- | --- | --- |
| 1.05 (0.94–1.17) | 1.19 (0.92–1.46) | 10 h | 2.5 h | Cc1cccc(C)c1OCC(=O)N[C@@H](Cc1ccccc1)[C@@H](O)C[C@H](Cc1ccccc1)NC(=O)[C@H](C(C)C)N1CCCNC1=O [Lopinavir, lopinavir] |
| – | – | 7.71 h | 2.7 h | CC(C)c1nc(CN(C)C(=O)N[C@H](C(=O)N[C@@H](Cc2ccccc2)C[C@H](O)[C@H](Cc2ccccc2)NC(=O)OCc2cncs2)C(C)C)cs1 [Ritonavir, ritonavir] |
